# Experiments:
# Format in all cases: functional, cell-based
# [1] = target: T1, Solute carrier family 22 member 7 (Homo sapiens, UniProt Q9Y694); experiment: TP_TRANSPORTER: inhibition of PAH uptake (alpha-KG: 500 uM) in OAT2-expressing EcR293 cells; conditions: ecr293, 500 µM
# T1 sequence (Q9Y694 whole entry): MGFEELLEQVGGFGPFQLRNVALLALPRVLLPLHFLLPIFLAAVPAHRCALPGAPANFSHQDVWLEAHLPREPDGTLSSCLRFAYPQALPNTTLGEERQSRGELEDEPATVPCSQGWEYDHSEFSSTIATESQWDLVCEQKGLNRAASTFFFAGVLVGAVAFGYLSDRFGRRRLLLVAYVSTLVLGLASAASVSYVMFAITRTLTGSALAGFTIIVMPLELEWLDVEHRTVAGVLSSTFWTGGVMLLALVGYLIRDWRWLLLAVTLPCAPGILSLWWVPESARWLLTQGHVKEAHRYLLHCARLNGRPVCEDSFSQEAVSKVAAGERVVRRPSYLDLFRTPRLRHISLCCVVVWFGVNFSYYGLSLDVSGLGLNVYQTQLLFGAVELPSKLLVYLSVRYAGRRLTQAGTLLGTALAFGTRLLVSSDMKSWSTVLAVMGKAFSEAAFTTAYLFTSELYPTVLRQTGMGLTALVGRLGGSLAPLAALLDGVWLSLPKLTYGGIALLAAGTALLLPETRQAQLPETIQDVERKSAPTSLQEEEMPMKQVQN
# [2] = target: T1, Solute carrier family 22 member 7; experiment: TP_TRANSPORTER: uptake in OAT2-expressing EcR293 cells
# [3] = target: T1, Solute carrier family 22 member 7; experiment: TP_TRANSPORTER: inhibition of PAH uptake (BSP: 100 uM) in OAT2-expressing EcR293 cells; conditions: ecr293, 100 µM
Activity [1],Activity [2],Compound,Activity [3]
is not an inhibitor [-],substrate [+],O=C(O)CCC(=O)C(=O)O [ALPHA-KETOGLUTARIC ACID],
,substrate [+],Nc1ccc(C(=O)NCC(=O)O)cc1 [AMINOHIPPURIC ACID],
,substrate [+],CN(Cc1cnc2nc(N)nc(N)c2n1)c1ccc(C(=O)N[C@@H](CCC(=O)O)C(=O)O)cc1 [METHOTREXATE],
,,O=C1OC(c2ccc(O)c(S(=O)(=O)[O-])c2)(c2ccc(O)c(S(=O)(=O)[O-])c2)c2c(Br)c(Br)c(Br)c(Br)c21.[Na+].[Na+] [SULFOBROMOPHTHALEIN SODIUM],inhibitor [+]

# Reference: ChEMBL document CHEMBL2073787, “Isolation of a family of organic anion transporters from human liver and kidney” (Biochem Biophys Res Commun, 2001)
